The test system of experiment [1] is porcine pluripotent stem cells. Kind of experiment: Influence of growth factor concentration in porcine pluripotent stem cell culture medium. The format is cell-based. The settings on record: for Optimal concentration / optimal concentration: in culture medium. The protocol: The influence of a growth factor concentration in a porcine pluripotent stem cell culture medium established in the above-described example was analyzed, and the results are shown in Table 10. When the concentration of growth factors was low, the growth of stem cells was reduced, and when the concentration of growth factor was high, except for bFGF, cells were killed. The allowable concentration of the bFGF was 3.03×10^−4 to 6.06×10^−3 μM, and the optimal concentration was 1.21×10^−3 μM. The allowable concentration of the Activin A was 1.50×10^−4 to 5.40×10^−4 μM, and the optimal concentration was 3.85×10^−4 μM. The allowable concentration of the CHIR99021 was 0.5 to 2.50 μM, and the optimal concentration was 1.50 μM. The allowable concentration of the IWR-1 was 1.20 to 3.00 μM, and the optimal concentration was 2.50 μM.

Experiment [2] concerns porcine blastocysts (inner cell mass). Kind of experiment: Culture of porcine blastocysts on feeder cells with signal molecule combinations in serum replacement medium. The format is cell-based. How it is done: First, a culture medium including KSR, N2/B27, KSR+N2/B27, or KSR+LC was used to find a serum replacement suitable for the growth of porcine embryos. […] As a result, it was confirmed that the inner cell mass expressing SOX2 rapidly grew in the group treated with KSR and KSR+LC (FIG. 1). Second, for long-term culturing of the inner cell mass, signal molecules were treated in various combinations (Table 6 and Table 7).
The culturing was attempted by adding signal molecules to basal medium including KSR or KSR+LC. Porcine embryonic stein cells were established in a culture medium including FGF2, A, and 6-[[2-[[4-(2,4-Dichlorophenyl)-5-(5-methyl-1H-imidazol-2-yl)-2-pyrimidinyl]amino]ethyl]amino]-3-pyridinecarbonitrile (CHIR99021) in a culture solution including serum replacement 4 (Tables 6 and 7, FIG. 2). In addition, for the stabilization of CHIR99021, 4-(1,3,3a,4,7,7a-Hexahydro-1,3-dioxo-4,7-methano-2H-isoindol-2-yl)-N-8-quinolinyl-Benzamide (IWR-1) was added to establish the composition for long-term culturing and maintenance of porcine embryonic stem cells, as shown in Table 8 and Table 9, respectively.

We go through 4 molecules from US12692477B2, “Medium composition for culturing porcine pluripotent stem cells” (SPACE F CORP., priority 2018, dated 2026).

Regarding `O=C(Nc1cccc2cccnc12)c1ccc(N2C(=O)C3C4C=CC(C4)C3C2=O)cc1` (stereo not drawn) [IWR-1, 4-(1,3,3a,4,7,7a-Hexahydro-1,3-dioxo-4,7-methano-2H-isoindol-2-yl)-N-8-quinolinyl-Benzamide, reference compound], in experiment [1], the “Optimal concentration” value came to 0.0025 mM and the optimal concentration amounted to 2.50 µM.
For `Cc1cnc(-c2cnc(NCCNc3ccc(C#N)cn3)nc2-c2ccc(Cl)cc2Cl)[nH]1` [CHIR99021, 6-[[2-[[4-(2,4-Dichlorophenyl)-5-(5-methyl-1H-imidazol-2-yl)-2-pyrimidinyl]amino]ethyl]amino]-3-pyridinecarbonitrile, reference compound] the same measures were 0.0015 mM and 1.50 µM.
Consider “bFGF: basic fibroblast growth factor, signal molecule in the culture medium”, for which, in experiment [2] (serum replacement 1), the “Blastocyst initial growth rate (%)” value is 30.0 ± 5.8% and the “Sox2 positive rate of the initial population (%)” value is listed as 30.0 ± 5.8%. The “Number of embryonic stem cell lines established in the long-term culture” value in experiment [2] (serum replacement 1, 30 blastocysts) came to 0. In addition, in experiment [2] (serum replacement 4), the “Blastocyst initial growth rate (%)” value turned out to be 51.5 ± 4.6% and the “Sox2 positive rate of the initial population (%)” value was determined as 44.8 ± 2.9%. In experiment [2] (serum replacement 4, 29 blastocysts), the “Number of embryonic stem cell lines established in the long-term culture” value turned out to be 0. Besides, in experiment [1], the “Optimal concentration” value was 1.21e-06 mM and the optimal concentration came out at 0.00121 µM.

B1: activin A: activin A, signal molecule acting through the SMAD signal transduction system (protein, UniProt P08476 311-426, looked up)
Inhibin beta A chain: GLECDGKVNICCKKQFFVSFKDIGWNDWIIAPSGYHANYCEGECPSHIAGTSGSSLSFHSTVINHYRMRGHSPFANLKSCCVPTKLRPMSMLYYDDGQNIIKKDIQNMIVEECGCS
In the case of B1, in experiment [1], the “Symptoms when exceeding the appropriate concentration” value is given as “Cell death”, the “Optimal concentration” value is 3.85e-07 mM and the optimal concentration was found to be 0.000385 µM.
